Assay results from paper PMC4167230, “Hydrophobic Substituents of the Phenylmethylsulfamide Moiety Can Be Used for the Development of New Selective Carbonic Anhydrase Inhibitors” (BioMed Research International, 2014).

Assays:
Assay in all cases: stopped-flow CO2 hydration assay
Type in all cases: biochemical
hCA I = target: T1, hCA I (Homo sapiens, UniProt P00915); details: read-out: K I (nM)∗ / hCA I
T1 construct: gene CA1; cytosolic isoform
Description: stopped-flow CO2 hydration assay on hCA I

hCA II = target: T2, hCA II (Homo sapiens, UniProt P00918); details: read-out: K I (nM)∗ / hCA II
T2 construct: gene CA2; cytosolic isoform; one molecule in the asymmetric unit
Description: stopped-flow CO2 hydration assay on hCA II

hCA XII = target: T3, hCA XII (Homo sapiens, UniProt O43570); details: read-out: K I (nM)∗ / hCA XII
T3 construct: gene CA12; transmembrane isoform
T3 sequence (O43570 25-354): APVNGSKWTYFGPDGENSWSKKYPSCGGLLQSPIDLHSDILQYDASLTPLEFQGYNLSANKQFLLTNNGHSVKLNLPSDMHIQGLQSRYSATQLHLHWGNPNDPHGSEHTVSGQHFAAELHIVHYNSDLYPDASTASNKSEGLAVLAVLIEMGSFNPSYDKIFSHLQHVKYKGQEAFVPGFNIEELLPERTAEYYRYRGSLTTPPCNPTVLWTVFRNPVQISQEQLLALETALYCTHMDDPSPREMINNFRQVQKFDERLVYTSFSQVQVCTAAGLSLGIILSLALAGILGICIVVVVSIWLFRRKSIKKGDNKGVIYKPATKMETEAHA
Description: stopped-flow CO2 hydration assay on hCA XII

T1 sequence (P00915 2-261): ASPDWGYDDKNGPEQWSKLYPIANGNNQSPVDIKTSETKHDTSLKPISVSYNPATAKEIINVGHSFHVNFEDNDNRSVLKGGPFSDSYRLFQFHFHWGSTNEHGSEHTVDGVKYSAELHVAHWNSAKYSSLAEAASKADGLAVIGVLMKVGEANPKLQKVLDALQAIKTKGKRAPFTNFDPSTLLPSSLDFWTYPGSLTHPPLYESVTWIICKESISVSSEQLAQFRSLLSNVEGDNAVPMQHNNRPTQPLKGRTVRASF

Row | Compound | Ki (hCA I) [nM] | Ki (hCA II) [nM] | Ki (hCA XII) [nM]
1 | NS(=O)(=O)NCc1ccc(O)cc1 [compound 11, N-(4-Hydroxybenzyl)sulfuric Diamide] | 2180 | 74.1 | 5.8
2 | COc1ccc(CNS(N)(=O)=O)cc1 [compound 12, N-(4-Methoxybenzyl)sulfuric Diamide] | 4050 | 134 | 6.6
3 | CC#CCOc1ccc(C=NS(N)(=O)=O)cc1 [compound 13, N-([4-(But-2-yn-1-yloxy)phenyl]methylidene)sulfuric Diamide] | 1940 | 9.8 | 8.4

Results, then the compound that gave them:

Row | Ki (hCA I) [nM] | Ki (hCA II) [nM] | Ki (hCA XII) [nM] | Compound
4 | 1810 | 9.5 | 8.1 | CC#CCOc1ccc(CNS(N)(=O)=O)cc1 [compound 14, N-[4-(But-2-yn-1-yloxy)benzyl]sulfuric Diamide]
5 | 1650 | 188 | 6.5 | Cc1cc(COc2ccc(C=NS(N)(=O)=O)cc2)c2ccccc2n1 [compound 15, N-({4-[(2-Methylquinolin-4-yl)methoxy]phenyl}methylidene)sulfuric Diamide]
6 | 1440 | 43.3 | 6.6 | Cc1cc(COc2ccc(CNS(N)(=O)=O)cc2)c2ccccc2n1 [compound 16, N-{4-[(2-Methylquinolin-4-yl)methoxy]benzyl}sulfuric Diamide]
